Laboratory results published in ChEMBL document CHEMBL2311450, “Synthesis and antibacterial evaluation of novel 11,4″-disubstituted azithromycin analogs with greatly improved activity against erythromycin-resistant bacteria” (2013).
Values after ≈ are worked out from the molar mass of the structure shown.

Assays:
Streptococcus pyogenes [1] = assay: Antibacterial activity against erythromycin-susceptible Streptococcus pyogenes by broth microdilution method; type: functional
Streptococcus pyogenes [2] = assay: Antibacterial activity against erythromycin-resistant Streptococcus pyogenes RE clinical isolate by broth microdilution method; type: functional
Staphylococcus aureus [3] = assay: Antibacterial activity against erythromycin-susceptible Staphylococcus aureus ATCC 25923 by broth microdilution method; type: functional
Streptococcus pneumoniae [4] = assay: Antibacterial activity against erythromycin-resistant Streptococcus pneumoniae AB11 expressing erm and mef genes by broth microdilution method; type: functional
Salmonella typhimurium [5] = assay: Antibacterial activity against Salmonella typhimurium TA98 by broth microdilution method; type: functional, Salmonella enterica subsp. enterica serovar Typhimurium; conditions: Salmonella enterica
Streptococcus pneumoniae [6] = assay: Antibacterial activity against erythromycin-resistant Streptococcus pneumoniae A22072 expressing mef gene by broth microdilution method; type: functional
Streptococcus pneumoniae [7] = assay: Antibacterial activity against erythromycin-resistant Streptococcus pneumoniae B1 expressing erm gene by broth microdilution method; type: functional
Streptococcus pneumoniae [8] = assay: Antibacterial activity against erythromycin-susceptible Streptococcus pneumoniae ATCC 49619 by broth microdilution method; type: functional
Salmonella typhimurium [9] = assay: Antibacterial activity against Salmonella typhimurium TA102 by broth microdilution method; type: functional, Salmonella enterica subsp. enterica serovar Typhimurium; conditions: Salmonella enterica
Staphylococcus aureus [10] = assay: Antibacterial activity against methicillin-susceptible Staphylococcus aureus ATCC 29213 by broth microdilution method; type: functional
Staphylococcus aureus [11] = assay: Antibacterial activity against penicillin-resistant Staphylococcus aureus clinical isolate by broth microdilution method; type: functional

| Structure (SMILES) | MIC (Streptococcus pyogenes [1]) [µg/mL] | MIC (Streptococcus pyogenes [2]) [µg/mL] | MIC (Staphylococcus aureus [3]) [µg/mL] | MIC (Streptococcus pneumoniae [4]) [µg/mL] | MIC (Salmonella typhimurium [5]) [µg/mL] | MIC (Streptococcus pneumoniae [6]) [µg/mL] | MIC (Streptococcus pneumoniae [7]) [µg/mL] | MIC (Streptococcus pneumoniae [8]) [µg/mL] | MIC (Salmonella typhimurium [9]) [µg/mL] | MIC (Staphylococcus aureus [10]) [µg/mL] | MIC (Staphylococcus aureus [11]) [µg/mL] |
| --- | --- | --- | --- | --- | --- | --- | --- | --- | --- | --- | --- |
| CC[C@H]1OC(=O)[C@H](C)[C@@H](O[C@H]2C[C@@](C)(OC)[C@@H](OC(=O)NCCCCNC(=O)c3ccc(OC)cc3)[C@H](C)O2)[C@H](C)[C@@H](O[C@@H]2O[C@H](C)C[C@H](N(C)C)[C@H]2O)[C@](C)(O)C[C@@H](C)CN(C)[C@H](C)[C@@H](OC(=O)NCCc2ccc(F)cc2)[C@]1(C)O | 16 (≈ 13.8 µM) | 64 (≈ 55.1 µM) | 1 (≈ 0.86 µM) | 8 (≈ 6.88 µM) | 4 (≈ 3.44 µM) | 0.5 (≈ 0.43 µM) | 4 (≈ 3.44 µM) | 0.12 (≈ 0.103 µM) | 2 (≈ 1.72 µM) | 2 (≈ 1.72 µM) | 4 (≈ 3.44 µM) |
| CC[C@H]1OC(=O)[C@H](C)[C@@H](O[C@H]2C[C@@](C)(OC)[C@@H](OC(=O)NCCCCNC(=O)c3ccc(OC)cc3)[C@H](C)O2)[C@H](C)[C@@H](O[C@@H]2O[C@H](C)C[C@H](N(C)C)[C@H]2O)[C@](C)(O)C[C@@H](C)CN(C)[C@H](C)[C@@H](OC(=O)NCCc2ccccc2Cl)[C@]1(C)O | 16 (≈ 13.6 µM) | 64 (≈ 54.3 µM) | 0.5 (≈ 0.424 µM) | 8 (≈ 6.79 µM) | 2 (≈ 1.7 µM) | 0.5 (≈ 0.424 µM) | 2 (≈ 1.7 µM) | 0.06 (≈ 0.0509 µM) | 8 (≈ 6.79 µM) | 1 (≈ 0.848 µM) | 4 (≈ 3.39 µM) |
| CC[C@H]1OC(=O)[C@H](C)[C@@H](O[C@H]2C[C@@](C)(OC)[C@@H](O)[C@H](C)O2)[C@H](C)[C@@H](O[C@@H]2O[C@H](C)C[C@H](N(C)C)[C@H]2O)[C@](C)(O)C[C@@H](C)C(=O)[C@H](C)[C@@H](O)[C@]1(C)O [ERYTHROMYCIN] | 0.03 (≈ 0.0409 µM) | 4 (≈ 5.45 µM) | 0.06 (≈ 0.0818 µM) | 256 (≈ 349 µM) | 0.5 (≈ 0.681 µM) | 8 (≈ 10.9 µM) | 128 (≈ 174 µM) | 0.03 (≈ 0.0409 µM) | 2 (≈ 2.73 µM) | 0.12 (≈ 0.164 µM) | 0.25 (≈ 0.341 µM) |
| CC[C@H]1OC(=O)[C@H](C)[C@@H](O[C@H]2C[C@@](C)(OC)[C@@H](OC(=O)NCCCCNC(=O)c3ccccc3OC)[C@H](C)O2)[C@H](C)[C@@H](O[C@@H]2O[C@H](C)C[C@H](N(C)C)[C@H]2O)[C@](C)(O)C[C@@H](C)CN(C)[C@H](C)[C@@H](OC(=O)NCCc2ccccc2)[C@]1(C)O | 16 (≈ 14 µM) | 16 (≈ 14 µM) | 0.5 (≈ 0.437 µM) | 16 (≈ 14 µM) | 4 (≈ 3.5 µM) | 2 (≈ 1.75 µM) | 8 (≈ 6.99 µM) | 0.12 (≈ 0.105 µM) | 1 (≈ 0.874 µM) | 32 (≈ 28 µM) | 8 (≈ 6.99 µM) |
| CC[C@H]1OC(=O)[C@H](C)[C@@H](O[C@H]2C[C@@](C)(OC)[C@@H](OC(=O)NCCCCNC(=O)c3ccc(OC)cc3)[C@H](C)O2)[C@H](C)[C@@H](O[C@@H]2O[C@H](C)C[C@H](N(C)C)[C@H]2O)[C@](C)(O)C[C@@H](C)CN(C)[C@H](C)[C@@H](OC(=O)NCc2ccc(F)c(F)c2)[C@]1(C)O | 8 (≈ 6.86 µM) | 64 (≈ 54.9 µM) | 0.5 (≈ 0.429 µM) | 16 (≈ 13.7 µM) | 4 (≈ 3.43 µM) | 0.12 (≈ 0.103 µM) | 4 (≈ 3.43 µM) | 0.03 (≈ 0.0257 µM) | 32 (≈ 27.4 µM) | 4 (≈ 3.43 µM) | 4 (≈ 3.43 µM) |
| CC[C@H]1OC(=O)[C@H](C)[C@@H](O[C@H]2C[C@@](C)(OC)[C@@H](OC(=O)NCCCCNC(=O)c3ccc(OC)cc3)[C@H](C)O2)[C@H](C)[C@@H](O[C@@H]2O[C@H](C)C[C@H](N(C)C)[C@H]2O)[C@](C)(O)C[C@@H](C)CN(C)[C@H](C)[C@@H](OC(=O)NCc2ccc(F)cc2)[C@]1(C)O | 32 (≈ 27.9 µM) | 64 (≈ 55.7 µM) | 1 (≈ 0.871 µM) | 16 (≈ 13.9 µM) | 8 (≈ 6.97 µM) | 0.25 (≈ 0.218 µM) | 4 (≈ 3.48 µM) | 0.06 (≈ 0.0522 µM) | 1 (≈ 0.871 µM) | 8 (≈ 6.97 µM) | 4 (≈ 3.48 µM) |
| CC[C@H]1OC(=O)[C@H](C)[C@@H](O[C@H]2C[C@@](C)(OC)[C@@H](OC(=O)NCCCCNC(=O)c3ccc(OC)cc3)[C@H](C)O2)[C@H](C)[C@@H](O[C@@H]2O[C@H](C)C[C@H](N(C)C)[C@H]2O)[C@](C)(O)C[C@@H](C)CN(C)[C@H](C)[C@@H](OC(=O)NCc2ccc(C)c(C)c2)[C@]1(C)O | 16 (≈ 13.8 µM) | 64 (≈ 55.2 µM) | 1 (≈ 0.863 µM) | 16 (≈ 13.8 µM) | 8 (≈ 6.91 µM) | 0.5 (≈ 0.432 µM) | 4 (≈ 3.45 µM) | 0.12 (≈ 0.104 µM) | 1 (≈ 0.863 µM) | 8 (≈ 6.91 µM) | 4 (≈ 3.45 µM) |
| CC[C@H]1OC(=O)[C@H](C)[C@@H](O[C@H]2C[C@@](C)(OC)[C@@H](OC(=O)NCCCCNC(=O)c3ccc(OC)c(OC)c3)[C@H](C)O2)[C@H](C)[C@@H](O[C@@H]2O[C@H](C)C[C@H](N(C)C)[C@H]2O)[C@](C)(O)C[C@@H](C)CN(C)[C@H](C)[C@@H](OC(=O)NCCc2ccccc2)[C@]1(C)O | 8 (≈ 6.81 µM) | 64 (≈ 54.5 µM) | 0.5 (≈ 0.426 µM) | 16 (≈ 13.6 µM) | 4 (≈ 3.41 µM) | 2 (≈ 1.7 µM) | 8 (≈ 6.81 µM) | 0.12 (≈ 0.102 µM) | 4 (≈ 3.41 µM) | 32 (≈ 27.2 µM) | 16 (≈ 13.6 µM) |
